# Test system: SARS-CoV-2 (D614G)
# Type: cell-based
# Details: 10 µM
compound,measurement,value
"CN(C)C(=O)COC(=O)Cc1ccc(OC(=O)c2ccc(NC(=N)N)cc2)cc1 [Camostat, camostat]",Percentage of infection inhibition,85%

# From paper PMC12658903 (RSC Medicinal Chemistry, 2025)
